Test results taken from ChEMBL document CHEMBL1201862, “PubChem BioAssay data set” (2004).
The source made the active and inactive calls.

What was measured:
[1] = luciferase reporter signal suppression in cells – H4 neuroglioma cells, luminescence, dose response (AID 1990); format: functional, cell-based
[2] = target: T1, RNA-binding protein pos-1 (Caenorhabditis elegans, UniProt G5EF15); experiment: disruptors of C. elegans POS-1 RNA interaction – biochemical, fluorescence polarization, dose response (AID 1964);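 also: purified POS-1 fused to maltose binding protein made in E. coli; potency of compounds blocking POS-1 binding to fluorescent RNA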
T1 sequence (G5EF15 whole entry): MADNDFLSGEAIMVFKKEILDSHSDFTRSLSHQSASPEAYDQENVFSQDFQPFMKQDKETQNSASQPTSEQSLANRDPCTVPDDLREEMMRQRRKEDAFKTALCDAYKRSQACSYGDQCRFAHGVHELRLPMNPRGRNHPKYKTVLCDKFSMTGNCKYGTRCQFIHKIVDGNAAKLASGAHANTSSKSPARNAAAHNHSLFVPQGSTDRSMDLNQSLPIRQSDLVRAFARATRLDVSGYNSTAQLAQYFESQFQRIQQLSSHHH

[3] = target: Mothers against decapentaplegic homolog 3 (Homo sapiens, UniProt P84022); experiment: inhibitors of SMAD-driven TGF-beta signaling – dose response (AID 715); format: functional
[4] = target: T2, Mitochondrial peptide methionine sulfoxide reductase (Bos taurus, UniProt P54149); experiment: Absorbance-based biochemical high throughput dose response assay for activators of Methionine sulfoxide reductase A (MsrA).; format: functional
T2 sequence (P54149 whole entry): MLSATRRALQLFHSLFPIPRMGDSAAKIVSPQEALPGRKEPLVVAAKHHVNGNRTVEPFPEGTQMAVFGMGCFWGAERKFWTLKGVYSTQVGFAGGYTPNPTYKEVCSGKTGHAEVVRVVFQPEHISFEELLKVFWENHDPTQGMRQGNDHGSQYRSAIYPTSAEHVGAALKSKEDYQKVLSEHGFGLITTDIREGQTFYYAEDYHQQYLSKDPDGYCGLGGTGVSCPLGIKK

[5] = target: Caspase-9 (Homo sapiens, UniProt P55211); experiment: inhibitors of purified CASP9 protease – biochemical, fluorescence, plate reader, cherry-picked samples, selectivity assay for caspase-6 inhibitor project, dose response (AID 743293)
[6] = target: T3, Rac GTPase-activating protein 1 (Homo sapiens, UniProt Q9H0H5); experiment: blockers of MgcRacGAP-driven Rac1 GTP hydrolysis – biochemical, ADP Hunter fluorescence, primary and confirmatory, confirmation (AID 624330); format: functional
T3 sequence (Q9H0H5 whole entry): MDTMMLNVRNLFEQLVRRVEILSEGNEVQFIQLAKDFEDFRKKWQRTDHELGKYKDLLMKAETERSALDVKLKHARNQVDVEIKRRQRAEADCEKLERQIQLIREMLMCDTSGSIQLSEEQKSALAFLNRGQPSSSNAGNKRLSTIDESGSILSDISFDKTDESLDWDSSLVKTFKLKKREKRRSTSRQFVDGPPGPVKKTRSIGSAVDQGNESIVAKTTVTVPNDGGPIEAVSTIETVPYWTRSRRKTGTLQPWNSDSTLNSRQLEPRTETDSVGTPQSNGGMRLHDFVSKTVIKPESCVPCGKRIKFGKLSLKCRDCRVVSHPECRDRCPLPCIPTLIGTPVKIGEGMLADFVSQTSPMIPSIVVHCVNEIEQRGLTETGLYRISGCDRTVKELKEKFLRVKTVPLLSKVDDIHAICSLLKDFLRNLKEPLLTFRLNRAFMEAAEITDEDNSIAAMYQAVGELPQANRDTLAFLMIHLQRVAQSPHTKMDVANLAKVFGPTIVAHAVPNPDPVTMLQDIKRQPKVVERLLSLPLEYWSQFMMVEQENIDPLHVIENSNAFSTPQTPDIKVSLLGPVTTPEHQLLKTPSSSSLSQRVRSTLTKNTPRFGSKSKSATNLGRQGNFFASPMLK

[7] = target: T4, Apoptotic protease-activating factor 1 (Homo sapiens, UniProt O14727); format: functional
T4 sequence (O14727 whole entry): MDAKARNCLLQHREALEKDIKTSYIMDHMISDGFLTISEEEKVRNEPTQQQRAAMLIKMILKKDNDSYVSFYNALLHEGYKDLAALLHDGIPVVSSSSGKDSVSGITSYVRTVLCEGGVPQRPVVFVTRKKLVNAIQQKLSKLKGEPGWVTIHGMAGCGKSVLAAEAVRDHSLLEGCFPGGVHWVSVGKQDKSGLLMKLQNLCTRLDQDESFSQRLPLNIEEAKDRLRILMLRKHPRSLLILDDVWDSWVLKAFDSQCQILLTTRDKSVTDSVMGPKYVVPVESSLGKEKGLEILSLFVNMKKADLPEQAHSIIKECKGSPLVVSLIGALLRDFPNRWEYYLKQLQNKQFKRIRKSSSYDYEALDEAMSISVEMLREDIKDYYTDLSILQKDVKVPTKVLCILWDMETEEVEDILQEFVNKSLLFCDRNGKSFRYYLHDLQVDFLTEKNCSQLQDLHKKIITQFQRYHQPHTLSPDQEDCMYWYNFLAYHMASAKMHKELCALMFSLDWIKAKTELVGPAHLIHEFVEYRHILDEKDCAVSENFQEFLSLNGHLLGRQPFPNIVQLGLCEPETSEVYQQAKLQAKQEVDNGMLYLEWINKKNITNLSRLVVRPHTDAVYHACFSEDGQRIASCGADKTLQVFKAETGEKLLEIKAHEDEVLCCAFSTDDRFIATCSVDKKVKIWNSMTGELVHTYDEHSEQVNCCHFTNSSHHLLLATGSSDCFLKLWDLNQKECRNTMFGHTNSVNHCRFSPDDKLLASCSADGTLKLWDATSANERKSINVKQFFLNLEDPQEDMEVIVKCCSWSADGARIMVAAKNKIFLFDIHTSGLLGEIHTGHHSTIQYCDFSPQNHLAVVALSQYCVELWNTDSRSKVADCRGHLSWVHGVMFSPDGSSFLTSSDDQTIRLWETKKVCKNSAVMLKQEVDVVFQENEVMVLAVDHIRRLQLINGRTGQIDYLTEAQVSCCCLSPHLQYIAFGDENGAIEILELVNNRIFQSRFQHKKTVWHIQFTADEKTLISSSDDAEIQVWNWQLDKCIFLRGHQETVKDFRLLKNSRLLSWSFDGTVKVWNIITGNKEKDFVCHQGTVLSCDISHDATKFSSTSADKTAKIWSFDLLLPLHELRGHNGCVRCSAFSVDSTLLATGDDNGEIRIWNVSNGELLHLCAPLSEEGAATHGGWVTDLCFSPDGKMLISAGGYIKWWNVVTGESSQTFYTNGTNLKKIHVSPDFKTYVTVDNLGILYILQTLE

[8] = tested on: HEK293; experiment: SAR Analysis of small molecule inhibitors of T-cell specific antigen receptor-induced NF-kB activation in a HEK-293T cell line using a luminescence assay - Set 2. [Related pubchem assays (depositor defined):AID435003, AID435012, AID489026]; format: functional, cell-based; conditions: Homo sapiens
[9] = tested on: Jurkat; experiment: SAR Analysis of small molecule inhibitors of T-cell specific antigen receptor-induced NF-kB activation in a Jurkat cell line using a luminescence assay - Set 2. [Related pubchem assays (depositor defined):AID435003, AID435012, AID465]; format: functional, cell-based; conditions: Homo sapiens

Mothers against decapentaplegic homolog 3, sequence (P84022 whole entry): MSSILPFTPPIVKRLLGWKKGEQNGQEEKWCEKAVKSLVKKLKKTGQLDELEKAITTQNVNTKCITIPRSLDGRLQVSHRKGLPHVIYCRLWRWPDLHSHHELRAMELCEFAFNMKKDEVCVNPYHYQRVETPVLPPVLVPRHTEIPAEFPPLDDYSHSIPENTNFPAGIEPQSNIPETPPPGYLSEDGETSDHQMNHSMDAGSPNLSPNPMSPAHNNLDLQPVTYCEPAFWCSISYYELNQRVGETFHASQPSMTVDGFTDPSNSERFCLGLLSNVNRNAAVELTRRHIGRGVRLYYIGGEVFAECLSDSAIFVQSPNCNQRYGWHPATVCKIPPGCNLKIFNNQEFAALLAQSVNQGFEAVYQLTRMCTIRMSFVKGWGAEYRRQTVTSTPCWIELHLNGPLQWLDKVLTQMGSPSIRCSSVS
Caspase-9, sequence (P55211 1-315 limits assumed): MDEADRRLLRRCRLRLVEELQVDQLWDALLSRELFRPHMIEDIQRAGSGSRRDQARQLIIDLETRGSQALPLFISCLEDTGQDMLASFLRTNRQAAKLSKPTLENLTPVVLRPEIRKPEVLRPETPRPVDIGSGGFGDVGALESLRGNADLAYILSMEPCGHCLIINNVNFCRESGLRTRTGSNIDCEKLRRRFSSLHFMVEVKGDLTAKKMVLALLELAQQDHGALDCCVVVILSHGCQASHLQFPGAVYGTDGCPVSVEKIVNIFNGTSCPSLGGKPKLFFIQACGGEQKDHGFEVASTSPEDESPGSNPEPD
Caspase-9, sequence (P55211 331-416 limits assumed): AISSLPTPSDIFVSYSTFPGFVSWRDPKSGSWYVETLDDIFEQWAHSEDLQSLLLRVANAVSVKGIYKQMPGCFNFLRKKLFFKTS

With Cn1nc(-c2ccc(Cl)cc2)nc2c(=O)n(C)c(=O)nc1-2 the EC50 [1] was 5.59 µM (inconclusive), the EC50 [2] was 17.6 µM (active) and the IC50 [3] was 0.039 µM (active).
In the case of NS(=O)(=O)c1ccc(NC(=O)COC(=O)c2ccc([N+](=O)[O-])s2)cc1, the EC50 [4] is reported as > 104 µM (inactive) and the AC50 [5] is reported as 22.8 µM (active).
In the case of CCCCNc1cc(NC(C)=O)cc2cc(OC)c(OC)cc12, the IC50 [6] is reported as 39.5 µM (active) and the IC50 [7] is reported as 3.62 µM (active).
With COc1ccc(C(NC(=O)C(C)C)c2ccc3cccnc3c2O)cc1 (centres undefined) the IC50 [8] was 3.15 µM (active) and the IC50 [9] was 2.38 µM (active).
